The results in this text go back to patent publication EP4653437A2 (Innovo Therapeutics Inc., priority 2023, dated 2024).

One test concerns the target T1, human 15-PGDH (Homo sapiens, UniProt P15428).
T1 construct: purchased R&D System 5660-DH
T1 sequence (P15428 1-266): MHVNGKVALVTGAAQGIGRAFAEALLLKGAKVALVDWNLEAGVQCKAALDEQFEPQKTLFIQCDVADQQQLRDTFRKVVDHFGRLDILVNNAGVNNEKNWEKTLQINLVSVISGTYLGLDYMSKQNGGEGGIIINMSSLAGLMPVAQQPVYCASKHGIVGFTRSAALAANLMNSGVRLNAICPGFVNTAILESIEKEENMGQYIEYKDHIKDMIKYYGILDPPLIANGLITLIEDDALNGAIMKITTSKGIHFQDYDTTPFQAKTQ
Description: Evaluation of 15-PGDH inhibitory activity (fluorescence enzyme assay, NAD+/PGE2). It counts as biochemical. To be noted: human 15-PGDH enzyme, fluorescence Vmax. The method, then: 15-PGDH inhibition activity of Example compounds was measured as follows. 6.7 ng of human 15-PGDH (R&D System# 5660-DH) enzyme (10 µL) was added to a black 96 well plate, 60 µL of buffer (50 mM Tris-HCl, pH 7.5, 0.01% Tween 20) was added, and 10 µL of 200 µM β-Nicotinamide adenine dinucleotide sodium salt (Sigma, Cat# N0632-5G) was added. 10 µL of (10x) compound solution in DMSO was added and reacted for 10 minutes at room temperature.

The subject of another test is A549 cells. Nature of the test: Measurement of PGE2-increasing activity in A549 cells (IL-1β stimulated, PGE2 quantified in supernatant). It counts as cell-based. The following applies: Homo sapiens, 24 h; concentration of 1 µM of each compound; IL-1β treated A549 cells; read-out: Increased PGE2 production in A549 cells. The method in brief:
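A549 cells grown 24 h in F12K with 10% FBS, then switched to serum-free medium with or without IL-1β and compound (0.1% DMSO final). After 24 h at 37 °C, 5% CO2, supernatant PGE2 quantified by immunoassay.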

Regarding `O=C(Nc1cccc(-c2cccc3c(C(=O)N4CCCCC4)cnn23)c1)c1cccnc1` [Example 95, N-(3-(3-(piperidine-1-carbonyl)pyrazolo[1,5-a]pyridin-7-yl)phenyl)nicotinamide], the IC50 (in general, the concentration needed to halve the response being measured) at human 15-PGDH was at most 100 nM. Moreover, in the test with A549 cells, the fold induction at 1 µM was over 1.5.
On the same counts, the results for `O=C(Cc1cncnc1)Nc1cncc(-c2cccc3c(C(=O)N4CCCCC4)cnn23)c1` [Example 403, N-(5-(3-(piperidine-1-carbonyl)pyrazolo[1,5-a]pyridin-7-yl)pyridin-3-yl)-2-(pyrimidin-5-yl)acetamide] are at most 100 nM and over 1.5.
For the compound `O=C(c1cccc(-c2cccc3c(C(=O)N4CCCCC4)cnn23)c1)N1CCOCC1` [Example 26, (7-(3-(morpholine-4-carbonyl)phenyl)pyrazolo[1,5-a]pyridin-3-yl)(piperidin-1-yl)methanone], the IC50 on human 15-PGDH is at most 100 nM. For the same compound, the fold induction at 1 µM with A549 cells was over 1.5.
In the same order, the values of `O=C(Cc1cncnc1)Nc1ccc(-c2cccc3c(C(=O)N4CCCCC4)cnn23)cn1` [Example 407, N-[5-[3-(piperidine-1-carbonyl)pyrazolo[1,5-a]pyridin-7-yl]-2-pyridyl]-2-pyrimidin-5-yl-acetamide] are at most 100 nM and over 1.5.
In the same order, the values of `O=C(O)c1ncc(-c2cccc3c(C(=O)N4CCCCC4)cnn23)cc1Cl` [Example 258, 3-chloro-5-[3-(piperidine-1-carbonyl)pyrazolo[1,5-a]pyridin-7-yl]pyridine-2-carboxylic acid] are at most 100 nM and under 1.5.
On the same counts, the results for `O=C(Cc1cccnc1)Nc1cncc(-c2cccc3c(C(=O)N4CCCCC4)cnn23)c1` [Example 327, N-(5-(3-(piperidine-1-carbonyl)pyrazolo[1,5-a]pyridin-7-yl)pyridin-3-yl)-2-(pyridin-3-yl)acetamide] are at most 100 nM and over 1.5.
For the compound `Cc1nc(-c2ccc(-c3cccc4c(C(=O)N5CCCCC5)cnn34)cc2F)no1` [Example 303, [7-[3-fluoro-4-(5-methyl-1,2,4-oxadiazol-3-yl)phenyl]pyrazolo[1,5-a]pyridin-3-yl]-(1-piperidyl)methanone], the IC50 on human 15-PGDH is at most 100 nM. In the test on A549 cells, the fold induction at 1 µM was over 1.5.
In the same order, the values of `O=C(Cc1cccnc1)Nc1c(F)cc(-c2cccc3c(C(=O)N4CCCCC4)cnn23)cc1F` [Example 278, N-(2,6-difluoro-4-(3-(piperidine-1-carbonyl)pyrazolo[1,5-a]pyridin-7-yl)phenyl)-2-(pyridin-3-yl)acetamide] are at most 100 nM and over 1.5.
On the same counts, the results for `C[C@@H]1CCCN(C(=O)c2cnn3c(-c4ccc5c(c4)C(=O)NC5)cccc23)C1` [Example 385, (R)-6-(3-(3-methylpiperidine-1-carbonyl)pyrazolo[1,5-a]pyridin-7-yl)isoindolin-1-one] are at most 100 nM and over 1.5.
`O=C(NC1CNC1)c1cncc(-c2cccc3c(C(=O)N4CCCCC4)cnn23)c1` [Example 200, N-(azetidin-3-yl)-5-(3-(piperidine-1-carbonyl)pyrazolo[1,5-a]pyridin-7-yl)nicotinamide] displayed an IC50 against human 15-PGDH of at most 100 nM. The fold induction at 1 µM in the test on A549 cells is over 1.5.
On human 15-PGDH, `O=C(c1cnn2c(-c3cnn(Cc4noc(=O)[nH]4)c3)cccc12)N1CCCCC1` [Example 396, 3-((4-(3-(piperidine-1-carbonyl)pyrazolo[1,5-a]pyridin-7-yl)-1H-pyrazol-1-yl)methyl)-1,2,4-oxadiazol-5(4H)-one] registered an IC50 of at most 100 nM. Further, the fold induction at 1 µM with A549 cells is over 1.5.
On the same counts, the results for `O=C(c1cnn2c(-c3cc(F)ncc3Cl)cccc12)N1CCCCC1` [Example 298, (7-(5-chloro-2-fluoropyridin-4-yl)pyrazolo[1,5-a]pyridin-3-yl)(piperidin-1-yl)methanone] are at most 100 nM and over 1.5.
On the same counts, the results for `O=C(c1cnn2c(-c3ccc(F)nc3F)cccc12)N1CCCCC1` [Example 266, (7-(2,6-difluoropyridin-3-yl)pyrazolo[1,5-a]pyridin-3-yl)(piperidin-1-yl)methanone] are at most 100 nM and over 1.5.
In the case of `Cc1noc(C)c1-c1ncc(-c2cccc3c(C(=O)N4CCCCC4)cnn23)cc1F` [Example 381, [7-[6-(3,5-dimethylisoxazol-4-yl)-5-fluoro-3-pyridyl]pyrazolo[1,5-a]pyridin-3-yl]-(1-piperidyl)methanone], the IC50 against human 15-PGDH was at most 100 nM. In addition, the fold induction at 1 µM in the test with A549 cells was over 1.5.
In the same order, the values of `Cn1oc2ccc(-c3cccc4c(C(=O)N5CCCCC5)cnn34)cc2c1=O` [Example 268, 2-methyl-5-(3-(piperidine-1-carbonyl)pyrazolo[1,5-a]pyridin-7-yl)benzo[d]isoxazol-3(2H)-one] are at most 100 nM and over 1.5.
Take `O=C(c1cnn2c(-c3ccc(-c4noc(=O)[nH]4)cc3)cccc12)N1CCCCC1` [Example 116, 3-(4-(3-(piperidine-1-carbonyl)pyrazolo[1,5-a]pyridin-7-yl)phenyl)-1,2,4-oxadiazol-5(4H)-one]: the IC50 against human 15-PGDH is at most 100 nM. Moreover, the fold induction at 1 µM with A549 cells was over 1.5.
On the same counts, the results for `CN1CCN(C(=O)c2ccc(-c3cccc4c(C(=O)N5CCCCC5)cnn34)cn2)CC1` [Example 83, (4-methylpiperazin-1-yl)(5-(3-(piperidine-1-carbonyl)pyrazolo[1,5-a]pyridin-7-yl)pyridin-2-yl)methanone] are at most 100 nM and over 1.5.
In the case of `Nc1cccc(-c2cccc3c(C(=O)N4CCCCC4)cnn23)c1` [Example 7, (7-(3-aminophenyl)pyrazolo[1,5-a]pyridin-3-yl)(piperidin-1-yl)methanone], the IC50 against human 15-PGDH was at most 100 nM. In addition, in the test on A549 cells, the fold induction at 1 µM is over 1.5.
On the same counts, the results for `O=C(c1ncc(-c2cccc3c(C(=O)N4CCCCC4)cnn23)cc1F)N1CCOCC1` [Example 249, [7-[5-fluoro-6-(morpholine-4-carbonyl)-3-pyridyl]pyrazolo[1,5-a]pyridin-3-yl]-(1-piperidyl)methanone] are at most 100 nM and under 1.5.
On the same counts, the results for `O=C(c1cncc(-c2cccc3c(C(=O)N4CCCCC4)cnn23)c1)N1CCC2(CC1)COC2` [Example 226, 2-oxa-7-azaspiro[3.5]nonan-7-yl-[5-[3-(piperidine-1-carbonyl)pyrazolo[1,5-a]pyridin-7-yl]-3-pyridyl]methanone] are at most 100 nM and over 1.5.
On to `O=C(c1cnn2c(-c3ccc(Cl)nc3)cccc12)N1CCCCC1` [Example 314, (7-(6-chloropyridin-3-yl)pyrazolo[1,5-a]pyridin-3-yl)(piperidin-1-yl)methanone], for which the half-maximal inhibitory concentration (IC50) against human 15-PGDH is at most 100 nM. Further, the fold induction at 1 µM in the test with A549 cells was over 1.5.
Regarding `CS(=O)(=O)NC(=O)c1cncc(-c2cccc3c(C(=O)N4CCCCC4)cnn23)c1` [Example 201, N-methylsulfonyl-5-[3-(piperidine-1-carbonyl)pyrazolo[1,5-a]pyridin-7-yl]pyridine-3-carboxamide], at human 15-PGDH, the IC50 was at most 100 nM. The fold induction at 1 µM with A549 cells was over 1.5.
`Nc1cncc(-c2cccc3c(C(=O)N4CCCCC4)cnn23)c1` [Example 9, (7-(5-aminopyridin-3-yl)pyrazolo[1,5-a]pyridin-3-yl)(piperidin-1-yl)methanone] had an IC50 against human 15-PGDH of at most 100 nM. The fold induction at 1 µM in the test with A549 cells is over 1.5.
`O=C(c1cnn2c(-c3cnc(Cl)nc3)cccc12)N1CCCCC1` [Example 267, (7-(2-chloropyrimidin-5-yl)pyrazolo[1,5-a]pyridin-3-yl)(piperidin-1-yl)methanone] gave an IC50 against human 15-PGDH of at most 100 nM. The fold induction at 1 µM in the test with A549 cells was over 1.5.
`O=C1NCc2ccc(-c3cccc4c(C(=O)N5CC6(CC(F)C6)C5)cnn34)cc21` [Example 411, 6-(3-(6-fluoro-2-azaspiro[3.3]heptane-2-carbonyl)pyrazolo[1,5-a]pyridin-7-yl)isoindolin-1-one]: at human 15-PGDH, the IC50 was at most 100 nM. For the same compound, the fold induction at 1 µM in the test with A549 cells is over 1.5.
In the case of `O=C(NCc1ccon1)c1cncc(-c2cccc3c(C(=O)N4CCCCC4)cnn23)c1` [Example 55, N-(isoxazol-3-ylmethyl)-5-(3-(piperidine-1-carbonyl)pyrazolo[1,5-a]pyridin-7-yl)nicotinamide], the IC50 on human 15-PGDH was at most 100 nM. Besides, in the test on A549 cells, the fold induction at 1 µM is over 1.5.
For `O=C(c1cnn2c(-c3ccc4cc[nH]c(=O)c4c3)cccc12)N1CCCCC1` [Example 134, 7-(3-(piperidine-1-carbonyl)pyrazolo[1,5-a]pyridin-7-yl)isoquinolin-1(2H)-one], the IC50 at human 15-PGDH was at most 100 nM. Also, in the test with A549 cells, the fold induction at 1 µM is over 1.5.
In turn, `O=C1NCc2ccc(-c3cccc4c(C(=O)N5CCC6(CCC6)C5)cnn34)cc21` [Example 391, 6-(3-(6-azaspiro[3.4]octane-6-carbonyl)pyrazolo[1,5-a]pyridin-7-yl)isoindolin-1-one] displayed an IC50 against human 15-PGDH of at most 100 nM. Also, the fold induction at 1 µM in the test with A549 cells was over 1.5.
